Results as given in patent US4110626A, “Method for improving the quality of the fragrance of perfumes using aliphatic dibasic acid diesters” (Shiseido Co., Ltd., priority 1976, dated 1978).

Assays:
skin of an albino rabbit = test: Primary irritation of the skin of an albino rabbit; assay type: in vivo; details: 0.3 ml, intact and abraded area, 24 hours
Protocol: The primary irritation of the skin of an albino rabbit was determined by adhering 0.3 ml of a test agent on a lint cloth patch, applying the cloth to an intact area and an abraded area of the skin of the back of the albino rabbit, and evaluating the skin reactions at these two areas after a lapse of 24 hours. Then, an overall evaluation was made.

[1] = Acute oral toxicity (LD50)
[2] = Fixing effect: HS-GC (II), analysis of volatilized portion after standing 15 minutes; assay type: physicochemical; details: for Analysis of Volatilized Portion after Standing 15 Minutes (HS-GC (II) Method): controlling agent 15%, model perfume 5%
Protocol: (§1) Then, the fixing effect was evaluated by a second head space gas chromatographic (II) method (HS-GC (II)). Specifically, a perfume containing 0.7 g of a perfume controlling agent was coated on a sheet of paper having a predetermined thickness, area (11.5 × 7.5 cm), and weight (about 2.9 g). The coated paper was allowed to stand for 15 minutes in an open space in a room (6 × 4 × 2.5 m) maintained at a humidity of 50% at a ventilation rate of 1,500 m^3 /hr. The paper was then transferred into a 1,000 ml Erlenmeyer flask, and the flask was tightly sealed. After a lapse of 15 minutes, the volatilized portion was collected and analyzed by gas chromatography under the conditions shown Table A above. Furthermore, the residue on the paper was extracted with acetone, and analyzed by gas chromatography using conditions shown in Table B below.
(§2) The composition of the model perfume used was as follows:
Model Perfume: 5% by weight
95% Ethanol: 95% by weight
The composition of the perfume containing a perfume controlling agent was as follows:
Perfume Controlling Agent: 15% by weight
95% Ethanol: 80% by weight

Pseudomonas aeruginosa = test: Microorganism assimilation; details: for OD (turbidity): 660 nm
Protocol: 100 ml of the above liquid medium was placed in a 500 ml Sakaguchi flask, and sterilized at 120° C for 15 minutes in an autoclave in a customary manner. After cooling, the culture medium was inoculated with a prescribed amount of a suspension of the pre-cultured microorganism and cultivated at 30° C with shaking 120 times per minute.
Changes with time in the pH, turbidity, number of living cells were determined.
The turbidity was determined as follows: 2 ml of the culture broth was collected, and the precipitate was separated with a centrifugal separator. The precipitate was washed with acetone, and suspended in 2 ml of distilled water. The turbidity (OD) of the suspension at 660 nm was measured.

[3] = Fixing effect: head space gas chromatographic (I) method (HS-GC (I)); assay type: physicochemical; details: 35° C, 60 minutes
Protocol: A model perfume formulation was prepared using eight typical perfumes having different chemical structures, and the fixing effect of a perfume controlling agent was evaluated.
The fixing effect of the perfume controlling agent was determined using a head space gas chromatographic (I) method (to be abbreviated hereinafter as HS-GC (I) method). Specifically, 0.5 g of a perfume containing the perfume controlling agent was placed in an Erlenmeyer flask, and after sealing, the flask was allowed to stand at 35° C for 60 minutes.
Column: 3% polyethylene glycol having a molecular weight of about 20,000 on diatomaceous earth (2m)
Column Temperature: -40° C (5 minutes, isothermal) flushed to 80° C and then to 200° C (4° C/min.)
Injector Temperature: 250° C
Detector Temperature: 250° C
(§3) Detector: Flame Ionization Detector
(§4) Carrier Gas: He (40 ml/min.)

[4] = Fixing effect: analysis of residue on paper after standing 15 minutes; assay type: physicochemical
Protocol: as §1
Column: 5% FFAP (free fatty acid polyester; a trade name for a product of Nippon Chromato Co., Ltd.) on diatomaceous earth (2m)
Column Temperature: 80° C (5 minutes, isothermal) to 220° C (4° C/min.)
Injector Temperature: 260° C
Detector Temperature: 260° C
as §3, §4, §2
The values shown in Table 5 above were obtained by calculating the areas of the perfumes while the area of musk ketone measured by gas chromatography was taken as 1. (This calculating procedure was adopted because musk ketone has a high boiling point, and scarcely volatilizes at 30° C.)

skin of a guinea pig = test: Cumulative irritation on the skin of a guinea pig; assay type: in vivo; details: 0.3 ml three times at 24 hour intervals, intact skin
Protocol: The cumulative irritation on the skin of a guinea pig was evaluated by coating 0.3 ml of a test agent on intact skin of the guinea pig and judging the skin reaction after a lapse of 24 hours, then coating the test agent in an amount of 0.3 ml on the same site twice, each at 24 hour intervals, and judging the reaction of the skin after a lapse of 72 hours (after coating three times).

[5] = Stabilizing effect on octanal (APHA color); assay type: physicochemical; details: 37° C, 1 month; original APHA 15; 50% controlling agent added or octanal alone
Protocol: Octanal was selected as a single perfume, and the stabilizing effect of the perfume controlling agent was determined.
Amount of Perfume Controlling Agent: 50% based on the octanal (in the case of both DIBA and DIAA)
Test Temperature and Period: 37° C, one month (checked every week)
Items Evaluated: Acid value (AV), carbonyl value (COV), APHA color
In the test, a 100 ml brown bottle boiled in water for 12 hours was used, and the head space of the bottle was purged with nitrogen gas after the octanal had been introduced into the bottle.
Specifically, the color of a solution obtained by diluting 1 ml of a standard original color liquid (octanal) with water exactly to a volume of 100 ml is taken as APHA No. 5, and the APHA color number is increased by a multiple of 5 (as 10, 15, 20 . . . ) for every 1 ml increase of the original liquid.

CC(C)COC(=O)CCCCC(=O)OCC(C)C [DIBA, diisobutyl adipate]
Primary irritation of the skin (skin of an albino rabbit): did not exhibit irritating effects
LD50 ([1]; acute oral toxicity): 12.3 mL/kg
Acute toxicity compared with conventional perfume controlling agents ([1]; conclusion from Table 1): equal to, or lower than, other conventional perfume controlling agents
Analysis of Volatilized Portion after Standing 15 Minutes (HS-GC (II) Method) ([2]; Citral (not present: 3.5%)): 1.3%
Analysis of Volatilized Portion after Standing 15 Minutes (HS-GC (II) Method) ([2]; Limonene (not present: 2.6%)): 45.9%
Analysis of Volatilized Portion after Standing 15 Minutes (HS-GC (II) Method) ([2]; Linalool (not present: 45.2%)): 29.7%
Analysis of Volatilized Portion after Standing 15 Minutes (HS-GC (II) Method) ([2]; Linalyl Acetate (not present: 39.0%)): 16.4%
Analysis of Volatilized Portion after Standing 15 Minutes (HS-GC (II) Method) ([2]; Musk ketone (not present: 0.0%)): 0.0%
Analysis of Volatilized Portion after Standing 15 Minutes (HS-GC (II) Method) ([2]; Pinene (not present: 0.2%)): 2.4%
Volatility and fixing ability ([2]; conclusion from Tables 3, 4 and 5): balanced volatility and fixing ability like DEP and BB
pH (Pseudomonas aeruginosa; 0 days elapsed): 6.94
Number of Living Cells (Pseudomonas aeruginosa; 2 days elapsed): 2.3 × 10^7
pH (Pseudomonas aeruginosa; 2 days elapsed): 4.72
OD (turbidity) (Pseudomonas aeruginosa; 2 days elapsed): 0.152
Number of Living Cells (Pseudomonas aeruginosa; 7 days elapsed): 3 × 10^2
pH (Pseudomonas aeruginosa; 7 days elapsed): 4.42
OD (turbidity) (Pseudomonas aeruginosa; 7 days elapsed): 0.13
Number of Living Cells (Pseudomonas aeruginosa; 14 days elapsed): < 10^2
pH (Pseudomonas aeruginosa; 14 days elapsed): 4.40
OD (turbidity) (Pseudomonas aeruginosa; 14 days elapsed): 0.115
Assimilation by microorganism (Pseudomonas aeruginosa; conclusion from Table 8): assimilated very well
Head Space Analysis of the Perfume after Adding 50% of DIBA ([3]; Benzyl Acetate, content 11.0% (alone 12.5%)): 12.6%
Head Space Analysis of the Perfume after Adding 50% of DIBA ([3]; Geraniol, content 16.5% (alone 0.9%)): 0.5%
Head Space Analysis of the Perfume after Adding 50% of DIBA ([3]; Lily Aldehyde, content 27.5% (alone 0.4%)): 0.2%
Head Space Analysis of the Perfume after Adding 50% of DIBA ([3]; Limonene, content 5.5% (alone 53.4%)): 57.5%
Head Space Analysis of the Perfume after Adding 50% of DIBA ([3]; Linalool, content 11.0% (alone 15.0%)): 12.8%
Head Space Analysis of the Perfume after Adding 50% of DIBA ([3]; Linalyl Acetate, content 11.0% (alone 4.1%)): 0.1%
Head Space Analysis of the Perfume after Adding 50% of DIBA ([3]; Nonanal, content 1.1% (alone […])): 2.1%
Head Space Analysis of the Perfume after Adding 50% of DIBA ([3]; Rose P, content 16.5% (alone 5.1%)): 4.4%
Analysis of Residue on Paper after Standing 15 Minutes (Area Ratio) ([4]; Citral (not present: 1.5), area of musk ketone taken as 1): 2
Analysis of Residue on Paper after Standing 15 Minutes (Area Ratio) ([4]; Limonene (not present: 0.3), area of musk ketone taken as 1): 0.6
Analysis of Residue on Paper after Standing 15 Minutes (Area Ratio) ([4]; Linalool (not present: 6.4), area of musk ketone taken as 1): 9.5
Analysis of Residue on Paper after Standing 15 Minutes (Area Ratio) ([4]; Linalyl Acetate (not present: 5.1), area of musk ketone taken as 1): 8.5
Analysis of Residue on Paper after Standing 15 Minutes (Area Ratio) ([4]; Musk Ketone (reference, taken as 1; not present: 1.0)): 1
Analysis of Residue on Paper after Standing 15 Minutes (Area Ratio) ([4]; Pinene (not present: 0.0), area of musk ketone taken as 1): 0
Cumulative irritation on the skin (skin of a guinea pig): did not exhibit irritating effects
APHA color of octanal [5]: about 30 APHA
